Measurements taken from patent publication US20240316047A1, “INHIBITORS OF RNA HELICASE DHX9 AND USES THEREOF” (ACCENT THERAPEUTICS, INC., priority 2022, published 2024).

Biological target: Human recombinant DHX9 protein (Homo sapiens (Human), UniProt Q08211)
Assay: DHX9 ATPase assay (ADP-Glo)
Assay type: biochemical
Details: for IC50: read-out: DHX9 Biochemical Inflection Point

Sequence of Human recombinant DHX9 protein (Q08211 whole entry): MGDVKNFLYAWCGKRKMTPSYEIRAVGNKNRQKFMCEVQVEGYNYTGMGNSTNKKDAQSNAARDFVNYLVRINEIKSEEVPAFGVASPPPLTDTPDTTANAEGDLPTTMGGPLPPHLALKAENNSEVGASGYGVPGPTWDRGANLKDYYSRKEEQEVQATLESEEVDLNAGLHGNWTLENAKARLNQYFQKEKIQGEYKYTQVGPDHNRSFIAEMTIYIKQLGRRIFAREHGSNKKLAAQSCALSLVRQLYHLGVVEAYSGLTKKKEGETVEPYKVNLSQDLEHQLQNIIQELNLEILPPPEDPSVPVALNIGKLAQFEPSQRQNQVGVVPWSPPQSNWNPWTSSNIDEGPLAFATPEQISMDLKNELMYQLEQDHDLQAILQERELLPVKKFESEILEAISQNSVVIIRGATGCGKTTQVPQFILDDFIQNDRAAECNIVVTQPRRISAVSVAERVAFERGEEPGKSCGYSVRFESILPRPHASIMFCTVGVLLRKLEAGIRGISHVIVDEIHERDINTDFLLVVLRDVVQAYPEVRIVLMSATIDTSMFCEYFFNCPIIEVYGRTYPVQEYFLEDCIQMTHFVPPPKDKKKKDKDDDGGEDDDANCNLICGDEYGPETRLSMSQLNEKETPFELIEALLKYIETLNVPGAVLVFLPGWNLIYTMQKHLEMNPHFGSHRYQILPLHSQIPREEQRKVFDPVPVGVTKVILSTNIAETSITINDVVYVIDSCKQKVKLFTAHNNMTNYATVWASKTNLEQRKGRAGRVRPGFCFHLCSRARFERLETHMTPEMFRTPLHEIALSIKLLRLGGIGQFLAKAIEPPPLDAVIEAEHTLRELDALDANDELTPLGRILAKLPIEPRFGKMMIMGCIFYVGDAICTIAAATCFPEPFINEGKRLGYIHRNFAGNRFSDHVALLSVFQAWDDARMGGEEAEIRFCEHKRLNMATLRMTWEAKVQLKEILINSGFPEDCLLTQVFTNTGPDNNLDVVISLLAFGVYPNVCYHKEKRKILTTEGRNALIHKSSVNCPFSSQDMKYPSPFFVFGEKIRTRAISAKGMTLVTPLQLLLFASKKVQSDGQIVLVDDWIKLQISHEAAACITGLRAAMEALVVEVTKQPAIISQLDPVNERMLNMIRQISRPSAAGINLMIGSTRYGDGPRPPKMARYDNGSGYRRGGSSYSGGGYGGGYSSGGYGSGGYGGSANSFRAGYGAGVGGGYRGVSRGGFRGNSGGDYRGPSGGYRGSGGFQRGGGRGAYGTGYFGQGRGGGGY

CCS(=O)(=O)Nc1cc(Cl)cc(NC(=O)c2cc(-c3ncc(F)cc3OC)c(C)s2)c1 [Example 354]
DHX9 Biochemical Max Inhibition: 75.5% | IC50: 13.4 nM

CCS(=O)(=O)Nc1cc(Cl)cc(NC(=O)c2cc(-c3ncc(F)cc3Cl)c(C)s2)c1 [Example 355]
DHX9 Biochemical Max Inhibition: 69.9% | IC50: 34.1 nM

Cc1sc(C(=O)Nc2cc(Cl)cc(NS(C)(=O)=O)c2)cc1-c1ncc(C(F)(F)F)cn1 [Example 357]
DHX9 Biochemical Max Inhibition: 91.7% | IC50: 85.6 nM

COc1cnc(-c2cc(C(=O)Nc3cc(Cl)cc(NS(C)(=O)=O)c3)sc2C)c(F)c1 [Example 358]
DHX9 Biochemical Max Inhibition: 84.3% | IC50: 38.4 nM

Cc1sc(C(=O)Nc2cc(Cl)cc(NS(C)(=O)=O)c2)cc1-c1ncc(F)cc1Cl [Example 359]
DHX9 Biochemical Max Inhibition: 68.3% | IC50: 54.9 nM

CCS(=O)(=O)Nc1cc(Cl)cc(NC(=O)c2cc(-c3ncc(OC)cc3F)c(C)s2)c1 [Example 360]
DHX9 Biochemical Max Inhibition: 56.5% | IC50: 40.9 nM

COc1cnc(-c2cc(C(=O)Nc3cc(Cl)cc(NS(C)(=O)=O)c3)sc2C)c(C)c1 [Example 361]
DHX9 Biochemical Max Inhibition: 88.8%

Cc1sc(C(=O)Nc2cc(Cl)cc(NS(C)(=O)=O)c2)cc1-c1c(F)cncc1F [Example 362]
DHX9 Biochemical Max Inhibition: 88.6% | IC50: 44.3 nM

Cn1cc(C(=O)Nc2cc(Cl)cc(NS(C)(=O)=O)c2)cc1-c1ncc(F)cc1OC(F)F [Example 363]
DHX9 Biochemical Max Inhibition: 94.3% | IC50: 25.2 nM

COc1cnc(-c2cc(C(=O)Nc3cc(Cl)cc(NS(C)(=O)=O)c3)sc2C)c(Cl)c1 [Example 364]
DHX9 Biochemical Max Inhibition: 79.8% | IC50: 15.6 nM

CCOc1cnc(-c2cc(C(=O)Nc3cc(Cl)cc(NS(=O)(=O)CC)c3)sc2C)nc1 [Example 365]
DHX9 Biochemical Max Inhibition: 78.7% | IC50: 20.5 nM

CCS(=O)(=O)Nc1cc(Cl)cc(NC(=O)c2cc(-c3ncc(C(F)(F)F)cn3)c(C)s2)c1 [Example 366]
DHX9 Biochemical Max Inhibition: 76.2% | IC50: 46.7 nM

Cc1sc(C(=O)Nc2cc(Cl)cc(NS(C)(=O)=O)c2)cc1-c1ncc(C(F)(F)F)cc1C#N [Example 367]
DHX9 Biochemical Max Inhibition: 63.5% | IC50: 55.9 nM

Cc1sc(C(=O)Nc2cc(Cl)cc(NS(C)(=O)=O)c2)cc1-c1ncc(C(F)(F)F)cc1F [Example 368]
DHX9 Biochemical Max Inhibition: 67.3% | IC50: 118 nM

CS(=O)(=O)Nc1cc(Cl)cc(NC(=O)c2cc(-c3ncc(C(F)(F)F)cn3)cs2)c1 [Example 369]
DHX9 Biochemical Max Inhibition: 61.5% | IC50: 57.6 nM

CS(=O)(=O)Nc1cc(Cl)cc(NC(=O)c2cc(-c3ccc(C(F)(F)F)cn3)cs2)c1 [Example 370]
DHX9 Biochemical Max Inhibition: 64.3%

CS(=O)(=O)Nc1cc(Cl)cc(NC(=O)c2cc(-c3ncc(C(F)(F)F)cc3F)cs2)c1 [Example 371]
DHX9 Biochemical Max Inhibition: 65.3% | IC50: 140 nM

CCCS(=O)(=O)Nc1cc(Cl)cc(NC(=O)c2cc(-c3ncccc3C)cs2)c1 [Example 372]
DHX9 Biochemical Max Inhibition: 49.2% | IC50: 402 nM

Cc1cccnc1-c1csc(C(=O)Nc2cc(Cl)cc(NS(=O)(=O)C(C)C)c2)c1 [Example 373]
DHX9 Biochemical Max Inhibition: 49.9%

Cc1cccnc1-c1csc(C(=O)Nc2cc(Cl)cc(N(C)S(C)(=O)=O)c2)c1 [Example 374]
DHX9 Biochemical Max Inhibition: 60% | IC50: 579 nM

Cc1sc(C(=O)Nc2cc(Cl)cc(NS(C)(=O)=O)c2)cc1-c1ncc(C#N)cc1F [Example 375]
DHX9 Biochemical Max Inhibition: 64.6% | IC50: 34.6 nM

Cc1cc(C#N)cnc1-c1cc(C(=O)Nc2cc(Cl)cc(NS(C)(=O)=O)c2)sc1C [Example 376]
DHX9 Biochemical Max Inhibition: 64.1%

Cc1sc(C(=O)Nc2cc(Cl)cc(NS(C)(=O)=O)c2)cc1-c1ccc(C#N)cn1 [Example 377]
DHX9 Biochemical Max Inhibition: 70.6% | IC50: 21.2 nM

Cc1sc(C(=O)Nc2cc(Cl)cc(NS(C)(=O)=O)c2)cc1-c1c(F)cc(F)cc1F [Example 378]
DHX9 Biochemical Max Inhibition: 80.9% | IC50: 874 nM

CC(C)(C)Oc1cnc(-c2csc(C(=O)Nc3cc(Cl)cc(NS(C)(=O)=O)c3)c2)nc1 [Example 379]
DHX9 Biochemical Max Inhibition: 65.4% | IC50: 41.8 nM

Cc1sc(C(=O)Nc2cc(Cl)cc(NS(C)(=O)=O)c2)cc1-c1ccc(OC(C)(C)C)cn1 [Example 380]
DHX9 Biochemical Max Inhibition: 68.7% | IC50: 33.5 nM

Cc1sc(C(=O)Nc2cc(Cl)cc(NS(C)(=O)=O)c2)cc1-c1ncc(OC(C)(C)C)cc1F [Example 381]
DHX9 Biochemical Max Inhibition: 67.4%

CS(=O)(=O)Nc1cc(Cl)cc(NC(=O)c2cc(-c3ncccc3CC(=O)N3CCC3)cs2)c1 [Example 382]
DHX9 Biochemical Max Inhibition: 75.9%

CS(=O)(=O)Nc1cc(Cl)cc(NC(=O)c2cc(-c3ncccc3CC(=O)N3CCCC3)cs2)c1 [Example 383]
DHX9 Biochemical Max Inhibition: 78.3% | IC50: 10.1 nM

CS(=O)(=O)Nc1cc(Cl)cc(NC(=O)c2cc(-c3ncccc3Cc3ncccn3)cs2)c1 [Example 384]
DHX9 Biochemical Max Inhibition: 75.5% | IC50: 39 nM

Cc1sc(C(=O)Nc2cc(Cl)cc(NS(C)(=O)=O)c2)cc1-c1ncccc1CC(=O)N(C)C [Example 385]
DHX9 Biochemical Max Inhibition: 78.1% | IC50: 83.8 nM

Cc1cccnc1-c1ccc(C(=O)Nc2cc(Cl)cc(NS(C)(=O)=O)c2)s1 [Example 386]
DHX9 Biochemical Max Inhibition: 59.2% | IC50: 420 nM

CS(=O)(=O)Nc1cc(Cl)cc(NC(=O)c2cnn(-c3ncccc3-c3cncnc3)c2)c1 [Example 387]
DHX9 Biochemical Max Inhibition: 58.2% | IC50: 186 nM

CS(=O)(=O)Nc1cc(Cl)cc(NC(=O)c2cnn(-c3cnc(N4CCOCC4)cn3)c2)c1 [Example 388]
DHX9 Biochemical Max Inhibition: 52.8% | IC50: 381 nM

Cc1cc(C(=O)Nc2cc(Cl)cc(NS(C)(=O)=O)c2)cn1-c1ccc(Cl)cn1 [Example 389]
DHX9 Biochemical Max Inhibition: 82.3% | IC50: 19.5 nM

Cc1cc(C(=O)Nc2cc(Cl)cc(NS(C)(=O)=O)c2)cn1-c1ccc(F)cn1 [Example 390]
DHX9 Biochemical Max Inhibition: 80.4% | IC50: 1.5 nM

COc1ccc(-n2cc(C(=O)Nc3cc(Cl)cc(NS(C)(=O)=O)c3)cc2C)nc1 [Example 391]
DHX9 Biochemical Max Inhibition: 78.5 | IC50: 8.9 nM

CS(=O)(=O)Nc1cc(Cl)cc(NC(=O)c2cnn(-c3ncccc3-c3cncc(F)c3)c2)c1 [Example 392]
DHX9 Biochemical Max Inhibition: 79.3 | IC50: 2.9 nM

COc1cc(F)cnc1-n1cc(C(=O)Nc2cc(Cl)cc(NS(C)(=O)=O)c2)cc1C [Example 393]
DHX9 Biochemical Max Inhibition: 77 | IC50: 2.3 nM

CS(=O)(=O)Nc1cc(Cl)cc(NC(=O)c2cnn(-c3ncc(N4CCOCC4)cn3)c2)c1 [Example 394]
DHX9 Biochemical Max Inhibition: 73.7 | IC50: 24.8 nM

Cc1cc(C(=O)Nc2cc(Cl)cc(NS(C)(=O)=O)c2)cn1-c1ccc(N2CC(F)C2)cn1 [Example 395]
DHX9 Biochemical Max Inhibition: 77.1 | IC50: 6.6 nM

Cc1cc(C(=O)Nc2cc(Cl)cc(NS(C)(=O)=O)c2)cn1-c1ccc(N2CCC(F)(F)C2)cn1 [Example 396]
DHX9 Biochemical Max Inhibition: 68.9 | IC50: 3.6 nM

Cc1cc(C(=O)Nc2cc(Cl)cc(NS(C)(=O)=O)c2)cn1-c1ccc(N2CCC2)cn1 [Example 397]
DHX9 Biochemical Max Inhibition: 77.2 | IC50: 10.2 nM

Cc1cc(C(=O)Nc2cc(Cl)cc(NS(C)(=O)=O)c2)cn1-c1ncc(N2CCC2)cn1 [Example 398]
DHX9 Biochemical Max Inhibition: 65.9 | IC50: 8.8 nM

Cc1cc(C(=O)Nc2cc(Cl)cc(NS(C)(=O)=O)c2)cn1-c1ccc(N2CC(F)(F)C2)cn1 [Example 399]
DHX9 Biochemical Max Inhibition: 72.1 | IC50: 11.4 nM

Cc1cc(C(=O)Nc2cc(Cl)cc(NS(C)(=O)=O)c2)cn1-c1ncc(N2CCCC2=O)cn1 [Example 401]
DHX9 Biochemical Max Inhibition: 70.3 | IC50: 10.6 nM

Cn1cc(C(=O)Nc2cc(Cl)cc(NS(C)(=O)=O)c2)cc1-c1ccc(N2CCCC2)cn1 [Example 402]
DHX9 Biochemical Max Inhibition: 76.8 | IC50: 45.1 nM

CCS(=O)(=O)Nc1cc(Cl)cc(NC(=O)c2cc(-c3ccc(N4CC(F)(F)C4)cn3)n(C)c2)c1 [Example 403]
DHX9 Biochemical Max Inhibition: 84.5 | IC50: 186 nM

COC1CN(c2cnc(-n3cc(C(=O)Nc4cc(Cl)cc(NS(C)(=O)=O)c4)cc3C)nc2)C1 [Example 404]
DHX9 Biochemical Max Inhibition: 92 | IC50: 84.5 nM

Cc1cc(C(=O)Nc2cc(Cl)cc(NS(C)(=O)=O)c2)cn1-c1ccc(N2CC3COCC3C2)cn1 (centres unmarked) [Example 405]
DHX9 Biochemical Max Inhibition: 93.9 | IC50: 5.2 nM

Cc1cc(C(=O)Nc2cc(Cl)cc(NS(C)(=O)=O)c2)cn1-c1ncc(N2CC(F)(F)C2)cc1Cl [Example 406]
DHX9 Biochemical Max Inhibition: 75.7 | IC50: 55.1 nM

Cc1cc(C(=O)Nc2cc(Cl)cc(NS(C)(=O)=O)c2)cn1-c1ncc(N2CC(F)(F)C2)cc1C(F)(F)F [Example 407]
DHX9 Biochemical Max Inhibition: 105 | IC50: 203 nM
